In patent US20220276262A1, “Methods and Products for Assessing Lysosomal System Flux” (SOUTH AUSTRALIAN HEALTH AND MEDICAL RESEARCH INSTITUTE …, priority 2019, published 2022):
Entries after “also recorded” stand apart in the source; their conditions may differ.

Columns and labels:
[1] = test system: LC3B-II in PBMCs; assay: Autophagic flux in PBMCs by lysosomal inhibition in whole blood, LC3B western blot; assay type: cell-based, human
Description: Blood was collected in lithium heparin (Greiner Bio-One, vacuette tube 9 ml lithium heparin, 455084), or EDTA (Greiner Bio-One, vacuette tube 9 ml K3EDTA, 455036) blood collection tubes (6-9 ml). Unless otherwise stated, blood samples were split into two (2×3 ml) and pipetted into 10 ml conical centrifuge tubes. One of the blood samples was treated with a final concentration of 150 μM of chloroquine (CQ, chloroquine diphosphate, Sigma Aldrich, C6628) (9 μl of 50 mM for a final volume of 3 ml of blood). Blood was mixed gently by inverting both tubes 3-4 times. Both tubes (+CQ and −CQ) were incubated at 37° C. for 1 hour with rotation (10 revolutions per minute, Thermo Scientific Tube Revolver, 88881002).
After blood was incubated for 1 hour at 37° C., blood tubes were kept on ice to stop enzyme activity and vesicular trafficking. PBMCs were then isolated using standard procedures. To each tube, 3 ml of cold DPBS (Dulbecco's Phosphate-Buffered Saline, GIBCO) was added to 3 ml of blood (1:1) and samples were mixed by gently inverting tubes 3-4 times. Four ml of Lymphoprep (Stemcell Technologies, 07811) was carefully underlayed beneath the blood/DPBS mixture using a 10 mL syringe and a canula (sterile). This was repeated for both blood tubes (containing blood incubated without and with CQ). Tubes containing blood/DPBS underlayed with lymphoprep were centrifuged for 30 min at 800 g, with brake off at 4° C.
PBMCs were carefully aspirated with a 1 mL pipette and dispensed into a 10 mL conical centrifuge tube (approximately 2 ml volume containing PBMCs). PBMCs were then diluted with cold DPBS to a final volume of 5 ml. PBMCs and DPBS were mixed gently by inverting tubes 3-4 times. PBMCs were then pelleted by centrifugation at 600 g for 10 min at 4° C. (with brake). The supernatant was discarded.
PBMCs were resuspended with 1 ml of red blood cell lysis buffer (1×, BD Biosciences, 555899) and were mixed by gently pipetting. PBMCs were left on ice for 2 minutes, after which they were pelleted by centrifugation at 600 g for 5 min at 4° C. The supernatant was discarded and PBMCs were washed by resuspension in 5 ml of cold DPBS. PBMCs were pelleted again by centrifugation at 600 g for 5 min at 4° C. The supernatant was discarded and the cells were again resuspended in 1 ml of cold DPBS and this suspension was transferred to a 1.5 ml microcentrifuge tube. This tube was centrifuged at 2,000 g for 10 min at 4° C. The supernatant was discarded and the pellet containing PBMCs was frozen on dry ice and stored at −80° C. until biochemical analyses.
PBMC pellets were resuspended in a lysis buffer containing protease and phosphatase inhibitors (10 mM Tris pH 7.0, 1 mM EDTA, 0.5 mM EGTA, 1% Triton X-100, 0.1% sodium deoxycholate, 0.1% SDS, 140 mM NaCl, 2.5 mM sodium pyrophosphate, 1 mM sodium orthovanadate, 1 mM β-glycerophosphate (pH 7.4) protease inhibitor cocktail Roche (1×). Cell suspensions were then sonicated on ice 2×20 sec. Cell lysates were centrifuged at 2,000 g for 10 min at 4° C. and the supernatant collected.
Total protein was measured using a micro BCA protein assay kit [Thermo Fisher Scientific 23235]. Western blot analysis was performed using 10 μg of total protein of each of the homogenates that were electrophoresed at 130 V for 1 hour through 4-12% Bis-Tris Plus SDS-PAGE gels (Bolt™, Invitrogen, Thermofisher Scientific). The gels were transferred to a methanol-activated PVDF membrane at 35 V for 70 min. […]

[2] = test system: P62 in PBMCs; assay: Whole blood incubation, P62 western blot in PBMCs; assay type: cell-based, human; conditions: chloroquine 0-200 μM in whole blood, 1 h at 37° C., four subjects
Description: (§1) Blood was mixed gently by inverting both tubes 3-4 times.
(§2) (with brake). The supernatant was discarded.
(§3) This tube was centrifuged at 2,000 g for 10 min at 4° C.
(§4) The gels were transferred to a methanol-activated PVDF membrane at 35 V for 70 min.
(§5) The membranes were incubated overnight at 4° C. with primary antibodies diluted in block solution on a tube roller.

[3] = test system: LC3B-II in PBMCs and PMNs; conditions: 150 μM chloroquine, one-hour, isolated PBMCs and PMNs in RPMI, N=3
Description: (§6) The supernatant was discarded.
as §6, §3, §4

[4] = test system: LC3A in PBMCs; assay: Whole blood incubation, LC3A western blot in PBMCs; assay type: cell-based, human; conditions: chloroquine 0-200 μM in whole blood, 1 h at 37° C., four subjects
Description: as §1, §2, §3, §4, §5

[5] = test system: SQSTM1/P62 in PBMCs; assay: Primary culture of PBMCs with or without chloroquine, SQSTM1/P62 western blot; assay type: cell-based, human; conditions: 150 μM chloroquine, one-hour, isolated PBMCs in RPMI, N=3
Description: as §6
Images were analyzed using ImageJ software.
These populations were verified by flow cytometry (FIG. 5B).

## CO/C1=C\C(C)=C\[C@@H](C)[C@@H](O)[C@@H](C)C/C(C)=C/C=C/[C@H](OC)[C@@H]([C@@H](C)[C@@H](O)[C@H](C)[C@@]2(O)C[C@@H](O)[C@H](C)[C@@H](C(C)C)O2)OC1=O [Bafilomycin, bafilomycin A1]
[1]; whole blood from four individuals, one hour at 37° C., ethanol vehicle
  LC3BII cargo in PBMCs: increased LC3BII cargo

## O=C([O-])CN(CCN(CC(=O)[O-])CC(=O)O)CC(=O)[O-].[K+].[K+].[K+] [EDTA]
[1]; EDTA tubes compared with lithium-heparin tubes, three subjects
  LC3B-II signal in no-chloroquine samples (basal state): lower

## CCN(CC)CCCC(C)Nc1ccnc2cc(Cl)ccc12 (stereo not drawn) [chloroquine]
[1]; 150 μM chloroquine in whole blood, 0-120 minutes of incubation
  LC3BII accumulation over time: near-linear increase in LC3BII accumulation
[1]; chloroquine 0-200 μM in whole blood, 1 h at 37° C., four subjects
  LC3B-II response to chloroquine titration (ΔLC3BII, measure of autophagic flux): robust directly proportional increase in response to increasing chloroquine concentration in whole blood up until 150 μM; also recorded: robust, directly proportional increase in response to increasing chloroquine concentration in whole blood up to 150 μM, after which a ceiling effect was observed
[2]
  P62 protein abundance: increased protein abundance with chloroquine treatment was observed in three out of four subjects
[3]
  LC3B-II level (LC3B-II degradation inhibited): increase in LC3B-II
[4]
  LC3A response to chloroquine treatment: not clearly responding
[5]
  P62 level after chloroquine treatment: did not change

## lithium heparin [lithium-heparin]
[1]; lithium-heparin compared with EDTA tubes, 150 μM chloroquine one-hour at 37° C., three subjects
  autophagic flux (ΔLC3B-II) by anti-coagulant of the collection tube: greater
